Experiment [1] relates to Rattus norvegicus. Briefly: Antihypertensive activity in spontaneously hypertensive rats (SHR''s) was evaluated after oral administration; ED50 mmHg. The class given is functional.
Experiment [2] has as its system Rattus norvegicus. Briefly: Potassium channel opening activity is expressed as area under curve (AUC), determined in spontaneously hypertensive rats (SHR's) after oral administration. The experiment is classed as functional.
Where [3] appears, read: Rattus norvegicus, po, read-out: ED50.

Experimental findings from ChEMBL document CHEMBL1129842, “ATP-sensitive potassium channel openers: Synthesis and antihypertensive activity of 4-bicyclyloxybenzopyrans” (1997) are described below.

Molecules are shown by their SMILES.

For orientation: ED50 means the dose at which the effect has come halfway, by size or by number of responders. For the molecule `CN1N=C(OC2c3cc(C#N)ccc3OC(C)(C)C2(C)O)C2CC2C1=O` (racemic), in experiment [1] (setting [3]), the ED50 is 0.0042 mg/kg.
In experiment [2], `CN1N=C(O[C@@H]2c3cc(C#N)ccc3OC(C)(C)[C@H]2O)C2CC2C1=O` (single isomer, unassigned; (-)) yielded an ECAUC0.2 of 0.18 µM. In experiment [1] (setting [3]), the ED50 is 0.029 mg/kg.
Turning to `Cn1nc(OC2c3cc(C#N)ccc3OC(C)(C)C2O)c2c(c1=O)CCC2` (racemic), in experiment [1] (setting [3]), the ED50 was found to be 0.86 mg/kg.
On to `Cn1nc(OC2c3cc(C#N)ccc3OC(C)(C)C2O)ccc1=O` (racemic), for which the ECAUC0.2 in experiment [2] stood at 0.25 µM. The ED50 in experiment [1] (setting [3]) worked out at 0.023 mg/kg.
For `CN1N=C(OC2c3cc([N+](=O)[O-])ccc3OC(C)(C)C2O)C2CC2C1=O` (racemic), the ED50 in experiment [1] (setting [3]) was found to be 0.049 mg/kg.
For `CN1N=C(OC2c3cc(C#N)ccc3OC(C)(C)C2O)C2CC2C1=O` (racemic; form 2), the ECAUC0.2 in experiment [2] amounted to 0.39 µM. The molecule also came in with an ED50 in experiment [1] of 0.047 mg/kg.
`CN1N=C(O[C@@H]2c3cc(C#N)ccc3OC(C)(C)[C@@]2(C)O)[C@@H]2C[C@@H]2C1=O`: the ECAUC0.2 in experiment [2] amounted to 0.021 µM. The ED50 in experiment [1] (setting [3]) came to 0.0023 mg/kg.
Turning to `CN1N=C(O[C@@H]2c3cc(C(F)(F)C(F)(F)F)ccc3OC(C)(C)[C@H]2O)[C@@H]2C[C@@H]2C1=O` (racemic), in experiment [1] (setting [3]), the median effective dose (ED50) is 0.047 mg/kg.
In experiment [2], `CC1(C)Oc2ccc(C#N)cc2C(N2CCCC2=O)C1O` (racemic) [CROMAKALIM] gave an ECAUC0.2 of 2.8 µM. Also, the ED50 in experiment [1] (setting [3]) stood at 0.31 mg/kg.
Consider `CN1N=C(O[C@@H]2c3cc(C#N)ccc3OC(C)(C)[C@H]2O)C2C(C1=O)C2(C)C` (mixture of isomers), for which the 50% effective dose (ED50) in experiment [1] (setting [3]) is over 0.1 mg/kg.
In the case of `Cn1nc(O[C@@H]2c3cc(C#N)ccc3OC(C)(C)[C@H]2O)ccc1=O`, the ECAUC0.2 in experiment [2] was found to be 0.16 µM. In addition, the ED50 in experiment [1] (setting [3]) was determined as 0.0064 mg/kg.
With `CN1N=C(OC2c3ccc([N+](=O)[O-])cc3OC(C)(C)C2O)C2CC2C1=O` (racemic), the ED50 in experiment [1] (setting [3]) is over 0.3 mg/kg.
`CN1N=C(N[C@@H]2c3cc(C#N)ccc3OC(C)(C)[C@H]2O)[C@@H]2C[C@@H]2C1=O`: the ED50 in experiment [1] (setting [3]) was 0.0065 mg/kg.
Molecule `CC1(C)Oc2ccc(C#N)cc2[C@@H](N2CCCC2=O)[C@@H]1O` [LEVCROMAKALIM] returned an ECAUC0.2 in experiment [2] of 1.6 µM. Further, the ED50 in experiment [1] (setting [3]) was determined as 0.14 mg/kg.
As for `CN1N=C(OC2c3cc(C#N)ccc3OC(C)(C)C2O)C2CC2C1=O` (racemic; form 1), in experiment [1], the ED50 is over 1 mg/kg.
Take `Cn1nc(OC2c3cc(C#N)ccc3OC(C)(C)C2O)c2ccccc2c1=O` (racemic): the ED50 in experiment [1] (setting [3]) was over 10 mg/kg.
